{"source": "patent EP4799701A2", "about": "“PYRIMID-2-YL-PYRAZOLE COMPOUNDS AS IRAK INHIBITORS” (Rigel Pharmaceuticals, Inc., priority 2022, dated 2023)", "key": {"[1]": {"tested_on": "TLR4-induced IL-23", "assay": "LPS induced IL23p19 in THP-1 cells (IFNγ primed), IL-23p19 sandwich ELISA", "assay_type": "cell-based, human", "conditions": "human THP-1 cells; result in words", "source_text": "LPS induced IL23p19 in THP-1 cells (with IFNy primed) Assay\nTHP-1 Cells (ATCC, Cat# TIB-202), Dimethyl Sulfoxide (DMSO) (Sigma-Aldrich, Cat# D2650), RPMI 1640 (Cellgro, Cat# 10-040-CM), Fetal Bovine Serum (Sigma, Cat# F4135), Albumin From Bovine Serum (BSA) (Sigma-Aldrich, Cat#A7906), LPS (Serotype K-235, Sigma, Product Number L 2143), IFNγ (Peprotech, Cat# 300-02), Capture antibody: Human IL-23p19 ELISA (e-Bioscience, Cat. # 14-7238-85), Detection antibody: Primary Mouse Biotinylated anti-human IL-12(p40/p70) (e-Bioscience, Cat. # 13-7129-85), Secondary HRP-conjugated Streptavidin (R&D Systems, Cat#DY998), 1x PBST Washing Buffer (PBS-Tween tablet) (VWR International, Cat#80058-558), ELISA Blocking Buffer (PBS with 1% BSA), ELISA Dilution Buffer (PBS with 1% BSA), 384 Well Flat-Bottom, MaxiSorp Black Immuno Plates (Thermo Scientific, Cat# 12-565-346), 384 Well Flat-Bottom, White Tissue Culture Plates (Thermo Scientific, Cat# 12-565-343), Super Signal ELISA Pico Chemiluminescent Substrate (Thermo Scientific, Cat#37070), Cell Titer Glo reagent (Promega, Cat#G7573), Positive control, IKK2VI inhibitor (Calbiochem, Cat#401483), AquaMax 4000 plate washer (Molecular Devices), Luminometer, Wallac Victor2 1420 Multilabel Counter.\nOn day 1, 50K/well THP-1 cells were seeded and primed with IFNγ (50ng/mL) in 384-well plates for about 18 hours in RPMI media with 10%FBS. On day 2, the compound was serially diluted in DMSO from 5 mM in 3-fold dilutions, and then diluted 1:125 in RPMI media with 10%FBS. […] IL-23p19 protein in 70 µL/well of supernatant was measured by sandwich ELISA, and 25 µl/well Cell Titer Glo reagent was added to the remaining cells to measure compound toxicity.\nMaxisorp immuno ELISA plates were pre-coated with 25 µL/well of anti-IL-23p19 capture antibody (2.5ug/mL) in PBS overnight at room temperature. […] The plates were read with a luminometer, and the chemiluminescence values were entered into Athena (Rigel) for curve fitting, EC50 calculation, and database storage. […]"}, "[2]": {"tested_on": "TLR7-induced TNF-α", "assay": "TNF-α in human monocyte-derived dendritic cells (gardiquimod)", "assay_type": "cell-based", "conditions": "human primary dendritic cells (DC); result in words", "method": "After 2 hours, the media including floating cells was carefully removed and 12 ml of fresh RPMI media (10% FBS) containing GM-CSF (100 ng/ml) and IL-4 (20 ng/ml) were added to the adherent monocytes.\nThe differentiated dendritic cells (DC) were harvested by centrifugation (1200 rpm/5 min)."}}}
{"smiles": "CCO[C@H]1CC[C@H](n2cc(NC(=O)c3csc(-c4cn[nH]c4)n3)c(-c3ncccn3)n2)CC1", "note": "[Compound I-1, N-(1-((1r,4r)-4-ethoxycyclohexyl)-3-(pyrimidin-2-yl)-1H-pyrazol-4-yl)-2-(1H-pyrazol-4-yl)thiazole-4-carboxamide]", "values": [{"measurement": "TLR4-induced IL-23 production", "setting": "[1]", "result": "inhibits"}, {"measurement": "TLR7- induced TNF-α production", "setting": "[2]", "result": "blocks"}]}
